These are literature values, as cited in patent publication US9458123B2, “Methods, pharmaceutical compositions, therapeutic systems, and compounds for treating B cell malignancies” (University of Rochester, priority 2012, dated 2016).

In the data set the target is Ubc13 and Uev1A (Homo sapiens, UniProt P61088+Q13404). Particulars: previous studies; cited from earlier work.
Chain of Ubc13 and Uev1A (P61088 whole entry, species assumed): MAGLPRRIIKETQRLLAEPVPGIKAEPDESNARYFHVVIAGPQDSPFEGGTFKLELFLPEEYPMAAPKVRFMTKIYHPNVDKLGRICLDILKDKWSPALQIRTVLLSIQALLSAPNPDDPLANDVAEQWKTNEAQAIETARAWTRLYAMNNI
Chain of Ubc13 and Uev1A (Q13404 whole entry, species assumed): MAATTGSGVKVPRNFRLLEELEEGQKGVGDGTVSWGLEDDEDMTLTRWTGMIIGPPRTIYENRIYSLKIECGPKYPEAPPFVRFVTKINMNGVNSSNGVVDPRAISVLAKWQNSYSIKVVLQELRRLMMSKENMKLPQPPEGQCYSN

Turning to `C[C@@H](N)[C@@H](O)C/C=C\C/C=C\C/C=C\C/C=C\C/C=C\C/C=C\CCCCCC[C@H](O)[C@@H](C)N` [leucettamol A], the “complex formation between Ubc13 and Uev1A in vitro” value is “inhibited”.
